Data: PubChem BioAssay (NCI)
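1) Cells in 96-well plates. 2) Compound, 48 h, 5 concentrations. 3) Linear interpolation between surrounding doses. 4) Unreached endpoint = highest concentration. Here, GI50 denotes the concentration required for 50% inhibition of growth. TGI: total growth inhibition.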

Legend:
Experiment in all cases: NCI tumour cell line growth inhibition, 48 h
786-0 renal = system: 786-0 renal
A498 renal = system: A498 renal
A549 NSCLC = system: A549 NSCLC
ACHN renal = system: ACHN renal
BT-549 breast = system: BT-549 breast
CAKI-1 renal = system: CAKI-1 renal
CCRF-CEM leukemia = system: CCRF-CEM leukemia
COLO 205 colon = system: COLO 205 colon
DU-145 prostate = system: DU-145 prostate
EKVX NSCLC = system: EKVX NSCLC
HCC-2998 colon = system: HCC-2998 colon
HCT-116 colon = system: HCT-116 colon
HCT-15 colon = system: HCT-15 colon
HL-60(TB) leukemia = system: HL-60(TB) leukemia
HOP-62 NSCLC = system: HOP-62 NSCLC
HOP-92 NSCLC = system: HOP-92 NSCLC
HS 578T breast = system: HS 578T breast
HT29 colon = system: HT29 colon
IGROV1 ovarian = system: IGROV1 ovarian
K-562 leukemia = system: K-562 leukemia
KM12 colon = system: KM12 colon
LOX IMVI melanoma = system: LOX IMVI melanoma
M14 melanoma = system: M14 melanoma
MALME-3M melanoma = system: MALME-3M melanoma
MCF7 breast = system: MCF7 breast
MDA-MB-435 = system: MDA-MB-435
MDA-MB-468 breast = system: MDA-MB-468 breast
MOLT-4 leukemia = system: MOLT-4 leukemia
NCI-H226 lung = system: NCI-H226 lung
NCI-H23 lung = system: NCI-H23 lung
NCI-H460 lung = system: NCI-H460 lung
NCI-H522 lung = system: NCI-H522 lung
NCI/ADR-RES ovarian = system: NCI/ADR-RES ovarian
OVCAR-3 ovarian = system: OVCAR-3 ovarian
OVCAR-4 ovarian = system: OVCAR-4 ovarian
OVCAR-5 ovarian = system: OVCAR-5 ovarian
OVCAR-8 ovarian = system: OVCAR-8 ovarian
PC-3 prostate = system: PC-3 prostate
RPMI-8226 leukemia = system: RPMI-8226 leukemia
RXF 393 renal = system: RXF 393 renal
SF-268 CNS = system: SF-268 CNS
SF-295 CNS = system: SF-295 CNS
SF-539 CNS = system: SF-539 CNS
SK-MEL-28 melanoma = system: SK-MEL-28 melanoma
SK-MEL-5 melanoma = system: SK-MEL-5 melanoma
SK-OV-3 ovarian = system: SK-OV-3 ovarian
SN12C renal = system: SN12C renal
SNB-19 CNS = system: SNB-19 CNS
SR leukemia = system: SR leukemia
SW-620 colon = system: SW-620 colon
T-47D breast = system: T-47D breast
TK-10 renal = system: TK-10 renal
U251 CNS = system: U251 CNS
UACC-257 melanoma = system: UACC-257 melanoma
UACC-62 melanoma = system: UACC-62 melanoma

Compound: CC[C@]12C=CCN3CC[C@@]4(c5ccc(OC)cc5N(C)[C@H]4[C@@](O)(C(=O)OC)[C@@H]1OC(=O)CCCC[P+](c1ccc(F)cc1)(c1ccc(F)cc1)c1ccc(F)cc1)[C@@H]32
- GI50 (786-0 renal): 34.1 µM
- TGI (786-0 renal): > 100 µM
- GI50 (A498 renal): > 100 µM
- TGI (A498 renal): > 100 µM
- GI50 (A549 NSCLC): 33.8 µM
- TGI (A549 NSCLC): > 100 µM
- GI50 (ACHN renal): > 100 µM
- TGI (ACHN renal): > 100 µM
- GI50 (BT-549 breast): 12.9 µM
- TGI (BT-549 breast): 27.1 µM
- GI50 (CAKI-1 renal): > 100 µM
- TGI (CAKI-1 renal): > 100 µM
- GI50 (CCRF-CEM leukemia): 13.6 µM
- TGI (CCRF-CEM leukemia): 30.3 µM
- GI50 (COLO 205 colon): 4.63 µM
- TGI (COLO 205 colon): 16.4 µM
- GI50 (DU-145 prostate): 35.4 µM
- TGI (DU-145 prostate): > 100 µM
- GI50 (EKVX NSCLC): 21 µM
- TGI (EKVX NSCLC): > 100 µM
- GI50 (HCC-2998 colon): 12.5 µM
- TGI (HCC-2998 colon): 25.5 µM
- GI50 (HCT-116 colon): 25.9 µM
- TGI (HCT-116 colon): > 100 µM
- GI50 (HCT-15 colon): > 100 µM
- TGI (HCT-15 colon): > 100 µM
- GI50 (HL-60(TB) leukemia): 2.11 µM
- TGI (HL-60(TB) leukemia): 13.2 µM
- GI50 (HOP-62 NSCLC): 25.5 µM
- TGI (HOP-62 NSCLC): 73.4 µM
- GI50 (HOP-92 NSCLC): 6.32 µM
- TGI (HOP-92 NSCLC): 23.5 µM
- GI50 (HS 578T breast): 16.9 µM
- TGI (HS 578T breast): 37.5 µM
- GI50 (HT29 colon): 15.4 µM
- TGI (HT29 colon): 38.8 µM
- GI50 (IGROV1 ovarian): 10.8 µM
- TGI (IGROV1 ovarian): 24.3 µM
- GI50 (K-562 leukemia): 11.3 µM
- TGI (K-562 leukemia): 38.7 µM
- GI50 (KM12 colon): 13.4 µM
- TGI (KM12 colon): 27.7 µM
- GI50 (LOX IMVI melanoma): 16.8 µM
- TGI (LOX IMVI melanoma): 30.8 µM
- GI50 (M14 melanoma): 14.7 µM
- TGI (M14 melanoma): 30 µM
- GI50 (MALME-3M melanoma): 13.5 µM
- TGI (MALME-3M melanoma): 27.3 µM
- GI50 (MCF7 breast): 11.5 µM
- TGI (MCF7 breast): 24.5 µM
- GI50 (MDA-MB-435): 12.9 µM
- TGI (MDA-MB-435): 28.4 µM
- GI50 (MDA-MB-468 breast): 2.61 µM
- TGI (MDA-MB-468 breast): 11.1 µM
- GI50 (MOLT-4 leukemia): 14.7 µM
- TGI (MOLT-4 leukemia): 32.6 µM
- GI50 (NCI-H226 lung): 27.3 µM
- TGI (NCI-H226 lung): > 100 µM
- GI50 (NCI-H23 lung): 20.1 µM
- TGI (NCI-H23 lung): 53.5 µM
- GI50 (NCI-H460 lung): 29.4 µM
- TGI (NCI-H460 lung): > 100 µM
- GI50 (NCI-H522 lung): 5.44 µM
- TGI (NCI-H522 lung): 20.2 µM
- GI50 (NCI/ADR-RES ovarian): > 100 µM
- TGI (NCI/ADR-RES ovarian): > 100 µM
- GI50 (OVCAR-3 ovarian): 9.3 µM
- TGI (OVCAR-3 ovarian): 23.3 µM
- GI50 (OVCAR-4 ovarian): 25.1 µM
- TGI (OVCAR-4 ovarian): > 100 µM
- GI50 (OVCAR-5 ovarian): 29.1 µM
- TGI (OVCAR-5 ovarian): > 100 µM
- GI50 (OVCAR-8 ovarian): 29.4 µM
- TGI (OVCAR-8 ovarian): > 100 µM
- GI50 (PC-3 prostate): 16.4 µM
- TGI (PC-3 prostate): 56.7 µM
- GI50 (RPMI-8226 leukemia): 2.97 µM
- TGI (RPMI-8226 leukemia): 14.9 µM
- GI50 (RXF 393 renal): 13.3 µM
- TGI (RXF 393 renal): 31.6 µM
- GI50 (SF-268 CNS): 17.6 µM
- TGI (SF-268 CNS): 38.3 µM
- GI50 (SF-295 CNS): 30.6 µM
- TGI (SF-295 CNS): > 100 µM
- GI50 (SF-539 CNS): 21.9 µM
- TGI (SF-539 CNS): 62.4 µM
- GI50 (SK-MEL-28 melanoma): 8.28 µM
- TGI (SK-MEL-28 melanoma): 20.7 µM
- GI50 (SK-MEL-5 melanoma): 17.1 µM
- TGI (SK-MEL-5 melanoma): 30.8 µM
- GI50 (SK-OV-3 ovarian): 23.5 µM
- TGI (SK-OV-3 ovarian): 66.5 µM
- GI50 (SN12C renal): 28.6 µM
- TGI (SN12C renal): > 100 µM
- GI50 (SNB-19 CNS): 13 µM
- TGI (SNB-19 CNS): 26.7 µM
- GI50 (SR leukemia): 14.5 µM
- TGI (SR leukemia): 31.9 µM
- GI50 (SW-620 colon): 16.5 µM
- TGI (SW-620 colon): 37.8 µM
- GI50 (T-47D breast): 11.5 µM
- TGI (T-47D breast): 43.2 µM
- GI50 (TK-10 renal): 21.2 µM
- TGI (TK-10 renal): 52.6 µM
- GI50 (U251 CNS): 10.7 µM
- TGI (U251 CNS): 23.3 µM
- GI50 (UACC-257 melanoma): 5.58 µM
- TGI (UACC-257 melanoma): 19.2 µM
- GI50 (UACC-62 melanoma): 11.3 µM
- TGI (UACC-62 melanoma): 23.5 µM
